Test results as given in patent US20160346249A1 (priority 2012, published 2016).

Legend:
[1] = Phase 2 efficacy study in patients with Major Depressive Disorder; assay type: in vivo, human
From the text: Subjects were identified who were between the ages of 18-65 (inclusive), and met criteria for Major Depressive Disorder in accordance with the Diagnostic and Statistical manual of Mental Disorders-IV-TR and confirmed by the MINI International Neuropsychiatric Interview.
Subjects were required to refrain from taking antidepressants, anticonvulsants including gabapentin and pregabalin, neuroleptics, MAO inhibitors, barbiturates, benzodiazepines, stimulants, antipsychotics, lithium, anxiolytics and beta blockers starting two weeks prior to the study and continuing until after the follow-up visit.
Samples were drawn to assess total bilirubin, alkaline phosphatase, ALT (SGPT), AST (SGOT), blood urea nitrogen (BUN), creatinine, glucose, uric acid, calcium, phosphorus, total protein, albumin, total cholesterol, LDL, HDL, triglycerides, sodium, potassium, bicarbonate, chloride, GGT and creatine kinase, Hepatitis B, C and HIV serologies, TSH, drug screen and serum pregnancy test for females.
Efficacy was determined by measuring the change from baseline in the Montgomery-Asberg Depression Rating Scale (MADRS), the HAMD-17, the Clinical Global Impression Global Improvement Scale (CGI-I), the Clinical Global Impression-Severity scale (CGI-S) and the Derogatis Interview for Sexual Functioning Self-Report (DISF-SR). […] Comparisons between treatment groups based on MADRS (the primary efficacy parameter), HAMD-17, Anhedonia, DISF-SR, CGI-I and CGI-S scores were analyzed using a mixed-repeated measures (MMRM) analysis model including factors for Subject, Visit, Treatment Arm and Baseline value as a covariate. Adjusted least-squares means from these models are presented. Comparisons between groups were made at each post-baseline visit using model-based contrasts and adjusted degrees of freedom. For these analyses no explicit data imputations were made prior to the analysis. Response and remission categorical data were analyzed using chi-square tests. Inferential analyses of safety data were conducted with ANOVA models or chi-square tests. Two-tail alpha was set to 0.05. All analyses were conducted using SAS version 9.2.

[2] = molecular target: T1, serotonin transporters (SERT) in the human brain (Homo sapiens, UniProt P31645); test: Open label PET study with [11C]DASB (DOV 947-007); assay type: in vivo; details: for brain SERT occupancy: 150 mg single oral dose; for Mean (Range) SERT Occupancy, Mean / Mean (Range) SERT Occupancy, Striatum / Mean (Range) SERT Occupancy, Thalamus: EB-1010 150 mg single oral, N = 3, preliminary
T1 construct: from tissue; host or cells: brain of healthy male volunteers, in vivo PET with [11C]DASB
T1 sequence (P31645 whole entry): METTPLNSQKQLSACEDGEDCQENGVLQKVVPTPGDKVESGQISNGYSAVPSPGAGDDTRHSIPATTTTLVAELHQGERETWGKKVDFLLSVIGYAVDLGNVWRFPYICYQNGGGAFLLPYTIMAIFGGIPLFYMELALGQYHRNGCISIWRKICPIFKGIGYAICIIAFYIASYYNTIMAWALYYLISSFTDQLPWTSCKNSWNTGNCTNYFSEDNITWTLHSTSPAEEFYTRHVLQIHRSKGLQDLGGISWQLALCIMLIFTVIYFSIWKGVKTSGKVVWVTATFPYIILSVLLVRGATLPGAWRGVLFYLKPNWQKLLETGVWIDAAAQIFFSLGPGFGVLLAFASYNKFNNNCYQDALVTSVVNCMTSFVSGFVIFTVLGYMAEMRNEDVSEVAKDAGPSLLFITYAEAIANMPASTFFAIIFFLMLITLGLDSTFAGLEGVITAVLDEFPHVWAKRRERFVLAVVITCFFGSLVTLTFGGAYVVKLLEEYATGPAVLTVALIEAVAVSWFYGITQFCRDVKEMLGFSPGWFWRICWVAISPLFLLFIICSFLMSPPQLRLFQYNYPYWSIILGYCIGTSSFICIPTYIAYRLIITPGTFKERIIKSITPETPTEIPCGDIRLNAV
From the text: With PET imaging, uptake inhibitor effects may be measured based on the proportion of SERT sites blocked in the brain. […] Safety was monitored by clinical and laboratory evaluations, including vital signs, physical examination, clinical chemistry, hematology, urinalysis, and ECG.

[3] = Single-dose intravenous rat toxicology study; details: Crl:CD(SD)IGS BR, in vivo
Protocol: Clinical observations, body weights, and food consumption were noted periodically. All animals were euthanized following a minimum 13-day non-dosing (recovery) period. Clinical pathology evaluations (hematology and serum chemistry) were performed on all rats at the time of necropsy and selected organs were weighed. No microscopic examinations were performed.

[4] = Female rat fertility study
Protocol: Physical signs, body weight, and food consumption were recorded periodically. Females were housed for up to 20 nights 1:1 with untreated males following 3 weeks of treatment. During cohabitation, vaginal lavages were performed daily. The presence of sperm in the lavage or a vaginal plug was considered positive evidence of mating. […] The day of confirmed mating was considered GD 0. Females with a confirmed mating were euthanized between GD 15 and 17. The uterus of each female was examined to determine pregnancy status. If there was no gross evidence of pregnancy, the uterus was stained with ammonium sulfide to visualize any early implantation sites. Corpora lutea per female were counted. Uterine implantations were counted, and each was classified as a live fetus, dead fetus, or a resorption. Fetuses were euthanized by rapid induction of hypothermia and discarded without further examination.

[5] = 100 mg, Visit 8, LOCF, Completers, 50% reduction or more of baseline total score
[6] = Visit 8 (Week 6), MMRM, MITT, n = 30

Clc1ccc([C@]23CNC[C@H]2C3)cc1Cl [amitifadine, (+)-1-(3,4-dichlorophenyl)-3-azabicyclo[3.1.0]hexane]
DISF-SR scores vs placebo ([1]; 100 mg, low and high baseline groups): no differences between (+)-1-(3,4-dichlorophenyl)-3-azabicyclo[3.1.0]hexane 100 mg and placebo
Response rate, HAMD-17 (%) [1, 5]: 55.00%
Response rate, MADRS (%) [1, 5]: 40.00%
Remission rate, HAMD-17 (%) ([1]; 100 mg, Visit 8, LOCF, Completers, HAMD-17 ≦ 7): 20.00%
Remission rate, MADRS (%) ([1]; 100 mg, Visit 8, LOCF, Completers, MADRS ≦ 12): 30.00%
Anhedonia factor (LS Mean - SE) [1, 6]: 7.92 (0.50)
CGI-I (LS Mean - SE) [1, 6]: 2.13 (0.20)
CGI-S (LS Mean - SE) [1, 6]: 3.31 (0.15)
HAMD-17 (LS Mean - SE) [1, 6]: 14.90 (1.40)
MADRS (LS Mean - SE) [1, 6]: 18.16 (1.21)
MADRS, Difference (95% CI) placebo vs drug ([1]; Visit 8, MMRM, MITT, P = 0.028): 3.83 (0.41, 7.26)
CGI-I, Difference (95% CI) placebo vs drug ([1]; Visit 8, MMRM, MITT, P = 0.030): 0.62 (0.06, 1.18)
Anhedonia factor, Difference (95% CI) placebo vs drug ([1]; Visit 8, MMRM, MITT, P = 0.049): 1.41 (0.01, 2.82)
HAMD-17, Difference (95% CI) placebo vs drug ([1]; Visit 8, MMRM, MITT, P = 0.125): 3.12 (−0.87, 7.12)
CGI-S, Difference (95% CI) placebo vs drug ([1]; Visit 8, MMRM, MITT, P = 0.306): 0.22 (−0.21, 0.66)
Diastolic BP - Standing, Mean Change from baseline ([1]; Visit 8, Safety Population, n = 33, P value vs. placebo 0.017): −3.00 mm Hg
Supine Pulse, Mean Change from baseline ([1]; Visit 8, Safety Population, n = 33, P value vs. placebo 0.145): 1.55 beats per minute
LDL Cholesterol Fasting, Mean Change from baseline ([1]; Visit 8, Safety Population, n = 33, P value vs. placebo 0.374): -4.29 mg/dL
Total Cholesterol Fasting, Mean Change from baseline ([1]; Visit 8, Safety Population, n = 33, P value vs. placebo 0.412): -5.86 mg/dL
Systolic BP - Standing, Mean Change from baseline ([1]; Visit 8, Safety Population, n = 33, P value vs. placebo 0.509): 0.069 mm Hg
Triglycerides Fasting, Mean Change from baseline ([1]; Visit 8, Safety Population, n = 33, P value vs. placebo […]): -12.00 mg/dL
Systolic BP - Supine, Mean Change from baseline ([1]; Visit 8, Safety Population, n = 33, P value vs. placebo 0.904): 2.58 mm Hg
Diastolic BP - Supine, Mean Change from baseline ([1]; Visit 8, Safety Population, n = 33, P value vs. placebo 0.961): −0.38 mm Hg
Weight, Mean Change from baseline ([1]; Visit 8, Safety Population, n = 33, P value vs. placebo 0.965): 0.078 kg
overall statistical effect size (Cohen's d), MADRS ([1]; Week 6): −0.63
MADRS total score, estimated LS mean change from baseline (MMRM) ([1]; Week 6, placebo […], p=0.028): 18.16
patients who reported an adverse treatment event ([1]; human, in vivo): 30.30%
Treatment-Emergent Adverse Event: Abdominal Pain (NOS), % of Patients ([1]; n = 33): 6.06%
Treatment-Emergent Adverse Event: Abdominal Pain (NOS), number of patients ([1]; n = 33): 2
Treatment-Emergent Adverse Event: Anxiety, % of Patients ([1]; n = 33): 6.06%
Treatment-Emergent Adverse Event: Anxiety, number of patients ([1]; n = 33): 2
Treatment-Emergent Adverse Event: Diarrhea NOS, % of Patients ([1]; n = 33): 6.06%
Treatment-Emergent Adverse Event: Diarrhea NOS, number of patients ([1]; n = 33): 2
Treatment-Emergent Adverse Event: Emotional Disturbance NOS, % of Patients ([1]; n = 33): 6.06%
Treatment-Emergent Adverse Event: Emotional Disturbance NOS, number of patients ([1]; n = 33): 2
Treatment-Emergent Adverse Event: Headache NOS, % of Patients ([1]; n = 33): 9.09%
Treatment-Emergent Adverse Event: Headache NOS, number of patients ([1]; n = 33): 3
Treatment-Emergent Adverse Event: Irritability, % of Patients ([1]; n = 33): 6.06%
Treatment-Emergent Adverse Event: Irritability, number of patients ([1]; n = 33): 2
Treatment-Emergent Adverse Event: Nausea, % of Patients ([1]; n = 33): 6.06%
Treatment-Emergent Adverse Event: Nausea, number of patients ([1]; n = 33): 2
Treatment-Emergent Adverse Event: Rash NOS, % of Patients ([1]; n = 33): 6.06%
Treatment-Emergent Adverse Event: Rash NOS, number of patients ([1]; n = 33): 2
Treatment-Emergent Adverse Event: Upper Respiratory Tract Infection NOS, % of Patients ([1]; n = 33): 6.06%
Treatment-Emergent Adverse Event: Upper Respiratory Tract Infection NOS, number of patients ([1]; n = 33): 2
brain SERT occupancy ([2]; about 2 hours): approximately 48%
brain SERT occupancy ([2]; about 7 hours): ~32%
brain SERT occupancy ([2]; about 7 hours, listed as EB-1010): approximately 32%
Mean (Range) SERT Occupancy, Mean ([2]; ~2 h): 48 (43-54) %
Mean (Range) SERT Occupancy, Striatum ([2]; ~2 h): 48 (44-53) %
Mean (Range) SERT Occupancy, Thalamus ([2]; ~2 h): 48 (41-55) %
Mean (Range) SERT Occupancy, Mean ([2]; ~7 h): 32 (23-41) %
Mean (Range) SERT Occupancy, Striatum ([2]; ~7 h): 32 (23-37) %
Mean (Range) SERT Occupancy, Thalamus ([2]; ~7 h): 33 (22-44) %
NOAEL at 13 days ([3]; female rats): 5 mg/kg
NOAEL at 13 days ([3]; male rats): 1.5 mg/kg
body weight loss ([4]; 34 mg/kg/day, first 4 days): -26 g
decreased food consumption ([4]; 34 mg/kg/day, first 4 days): −50%
NOEL reproductive performance ([4]; female rats): ≥ 34 mg/kg/day
NOEL general toxicity ([4]; female, Crl:CD(SD), rat, in vivo): 9 mg/kg/day
